# Data taken from article PMC5773580, “A synthetic combinatorial approach to disabling deviant Hedgehog signaling” (Scientific Reports, 2018).
# Values joined by “and” are separate entries in the source; they are usually repeats but may differ in a detail not shown here. Equal values may be shown once.
# Experiments:
# [1] = biological target: T1, HDAC2 (Homo sapiens, UniProt Q92769); assay: In vitro HDAC profiling (deacetylation assay), HDAC2; format: biochemical; details: for HDAC Activity (Fluorescent counts): Repeat1/Repeat 2
# T1 construct: purchased BPS Bioscience #50051-11
# T1 sequence (Q92769 whole entry): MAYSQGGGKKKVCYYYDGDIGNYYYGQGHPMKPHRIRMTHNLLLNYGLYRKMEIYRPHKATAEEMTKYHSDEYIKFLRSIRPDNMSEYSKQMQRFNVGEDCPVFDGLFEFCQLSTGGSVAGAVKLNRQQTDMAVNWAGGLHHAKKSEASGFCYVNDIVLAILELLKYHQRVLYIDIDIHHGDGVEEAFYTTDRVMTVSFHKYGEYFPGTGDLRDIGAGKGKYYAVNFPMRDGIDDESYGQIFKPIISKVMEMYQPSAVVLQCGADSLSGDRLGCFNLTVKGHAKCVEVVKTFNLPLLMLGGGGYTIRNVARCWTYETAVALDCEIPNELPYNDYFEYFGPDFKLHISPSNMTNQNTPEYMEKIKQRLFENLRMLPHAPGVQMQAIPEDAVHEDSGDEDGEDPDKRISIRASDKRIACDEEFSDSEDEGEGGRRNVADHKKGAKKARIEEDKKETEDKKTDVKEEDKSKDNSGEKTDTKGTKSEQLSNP
# Procedure: (§1) HDAC profiling was performed at BPS Bioscience (San Diego, CA). All of the compounds are dissolved in DMSO. A series of dilutions of the compounds were prepared with 10% DMSO in HDAC assay buffer (#50031) and 5 µl of the dilution was added to a 50 µl reaction so that the final concentration of DMSO is 1% in all of reactions. All of the enzymatic reactions were conducted in duplicate at 37 °C for 30 mins, except that the enzyme reactions for HDAC11 were at room temperature for 3 hrs. All of the reactions were performed in a 50 µl mixture containing HDAC assay buffer, 5 µg BSA, an HDAC substrate [HDAC Substrate 3 (BPS number 50037) or HDAC Class 2a Substrate 1 (BPS number 50040)], an HDAC enzyme (#50051-11) and a test compound. After enzymatic reactions, 50 μl of HDAC Developer (#50030) was added to each well and the plate was incubated at room temperature for an additional 20 mins. Fluorescence intensity was measured at an excitation of 360 nm and an emission of 460 nm using a Tecan Infinite M1000 microplate reader. HDAC activity assays were performed in duplicates at each concentration. The fluorescent intensity data were analyzed using the computer software, Graphpad Prism. In the absence of the compound, the fluorescent intensity (Ft) in each data set was defined as 100% activity. In the absence of HDAC, the fluorescent intensity (Fb) in each data set was defined as 0% activity. The percent activity in the presence of each compound was calculated according to the following equation: %activity = (F − Fb)/(Ft − Fb), where F = the fluorescent intensity in the presence of the compound. The values of % activity versus a series of compound concentrations were then plotted using non-linear regression analysis of Sigmoidal dose-response curve generated with the equation Y = B + (T − B)/1 + 10((LogIC50 − X) × Hill Slope), where Y = percent activity, B = minimum percent activity, T = maximum percent activity, X = logarithm of compound and Hill Slope = slope factor or Hill coefficient. The IC50 value was determined by the concentration causing a half-maximal percent activity.
# [2] = biological target: T2, HDAC4 (Homo sapiens, UniProt P56524); assay: In vitro HDAC profiling (deacetylation assay), HDAC4; format: biochemical; details: for HDAC Activity (Fluorescent counts): Repeat1/Repeat 2
# T2 construct: purchased BPS Bioscience #50051-11
# T2 sequence (P56524 whole entry): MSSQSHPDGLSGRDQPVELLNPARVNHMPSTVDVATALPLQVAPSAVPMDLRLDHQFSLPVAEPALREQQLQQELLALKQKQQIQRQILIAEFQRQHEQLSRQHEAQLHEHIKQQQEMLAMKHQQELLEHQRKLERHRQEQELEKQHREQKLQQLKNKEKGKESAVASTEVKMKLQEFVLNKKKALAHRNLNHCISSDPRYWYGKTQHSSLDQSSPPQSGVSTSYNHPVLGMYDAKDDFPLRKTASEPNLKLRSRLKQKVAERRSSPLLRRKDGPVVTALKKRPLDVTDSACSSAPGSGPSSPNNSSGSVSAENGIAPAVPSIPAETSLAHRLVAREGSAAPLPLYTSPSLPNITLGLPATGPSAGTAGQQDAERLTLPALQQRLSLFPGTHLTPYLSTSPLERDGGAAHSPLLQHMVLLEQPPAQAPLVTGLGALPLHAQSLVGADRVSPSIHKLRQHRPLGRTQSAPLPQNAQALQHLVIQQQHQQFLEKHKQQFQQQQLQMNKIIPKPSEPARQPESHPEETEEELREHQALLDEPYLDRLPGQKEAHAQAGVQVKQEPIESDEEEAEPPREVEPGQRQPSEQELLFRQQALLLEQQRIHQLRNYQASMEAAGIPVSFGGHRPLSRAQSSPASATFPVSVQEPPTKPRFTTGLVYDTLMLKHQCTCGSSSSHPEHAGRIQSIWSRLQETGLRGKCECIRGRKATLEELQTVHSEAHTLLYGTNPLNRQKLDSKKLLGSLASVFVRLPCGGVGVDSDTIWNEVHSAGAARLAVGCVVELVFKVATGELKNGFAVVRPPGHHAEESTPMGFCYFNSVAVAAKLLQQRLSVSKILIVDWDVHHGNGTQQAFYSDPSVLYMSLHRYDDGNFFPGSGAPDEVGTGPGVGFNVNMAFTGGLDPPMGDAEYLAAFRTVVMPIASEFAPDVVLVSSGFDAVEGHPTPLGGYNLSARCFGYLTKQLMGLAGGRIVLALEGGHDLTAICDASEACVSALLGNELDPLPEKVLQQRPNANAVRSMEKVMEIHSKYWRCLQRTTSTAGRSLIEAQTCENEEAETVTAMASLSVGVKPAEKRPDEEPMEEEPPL
# Procedure: as §1
# [3] = biological target: T3, HDAC5 (Homo sapiens, UniProt Q9UQL6); assay: In vitro HDAC profiling (deacetylation assay), HDAC5; format: biochemical; details: for HDAC Activity (Fluorescent counts): Repeat1/Repeat 2
# T3 construct: purchased BPS Bioscience #50051-11
# T3 sequence (Q9UQL6 whole entry): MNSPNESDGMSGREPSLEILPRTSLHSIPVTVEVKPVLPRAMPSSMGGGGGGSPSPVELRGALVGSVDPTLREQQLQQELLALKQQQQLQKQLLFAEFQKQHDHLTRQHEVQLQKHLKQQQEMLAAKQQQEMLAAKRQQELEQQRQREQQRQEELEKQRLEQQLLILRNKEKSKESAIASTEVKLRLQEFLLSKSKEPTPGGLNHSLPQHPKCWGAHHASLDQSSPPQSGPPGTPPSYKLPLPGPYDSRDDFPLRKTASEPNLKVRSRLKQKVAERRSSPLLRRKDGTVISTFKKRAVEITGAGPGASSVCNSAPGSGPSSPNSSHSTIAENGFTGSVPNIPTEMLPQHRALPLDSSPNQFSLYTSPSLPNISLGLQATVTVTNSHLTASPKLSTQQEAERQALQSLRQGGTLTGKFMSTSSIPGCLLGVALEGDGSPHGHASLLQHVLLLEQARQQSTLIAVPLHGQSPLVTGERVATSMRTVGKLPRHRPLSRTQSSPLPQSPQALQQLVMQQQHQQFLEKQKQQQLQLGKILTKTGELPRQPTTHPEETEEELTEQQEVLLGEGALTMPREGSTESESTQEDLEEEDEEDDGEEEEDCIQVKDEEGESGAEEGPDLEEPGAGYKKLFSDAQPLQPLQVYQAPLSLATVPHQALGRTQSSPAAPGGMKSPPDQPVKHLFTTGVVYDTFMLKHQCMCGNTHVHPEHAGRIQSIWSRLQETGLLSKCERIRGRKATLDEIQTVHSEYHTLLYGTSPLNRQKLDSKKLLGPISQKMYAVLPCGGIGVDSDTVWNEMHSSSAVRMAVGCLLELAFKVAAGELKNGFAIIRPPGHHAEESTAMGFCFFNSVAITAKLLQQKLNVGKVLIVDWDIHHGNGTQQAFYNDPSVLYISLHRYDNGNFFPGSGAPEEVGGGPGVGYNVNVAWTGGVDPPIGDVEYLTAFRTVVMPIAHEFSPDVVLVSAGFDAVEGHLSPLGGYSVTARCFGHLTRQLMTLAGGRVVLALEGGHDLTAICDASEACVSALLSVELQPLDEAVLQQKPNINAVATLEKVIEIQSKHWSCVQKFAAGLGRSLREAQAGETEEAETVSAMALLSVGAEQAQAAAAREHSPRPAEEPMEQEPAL
# Procedure: as §1
# [4] = tested on: GLI-BS reporter in Ptch1-/- MEFs; assay: GLI-BS reporter assay in Ptch1-/- MEFs; format: cell-based
# Procedure: (§2) The HH-responsive firefly luciferase reporter (GLI-BS) and a control Renilla luciferase reporter (SV40-RL) were transfected into indicated cell lines using Effectene (Qiagen) either alone or with indicated DNAs. 24 hrs after transfection, cells were switched to low serum media (3% calf serum), and grown for another 48 hrs. in 5% CO2 in the presence/absence of compounds. 3T3-ShhFL cell line that stably expressing SHH and the two reporters were cultured in a similar fashion. FL and RL activities in lysate generated using Passive Lysis Buffer (Promega) were then assessed using the Dual-Luciferase kit (Promega) and a 96-well plate reading luminometer (BMG). The ratio of FL/RL was calculated and the averaged ratios from three replicates were reported.
# [5] = tested on: RMS13 cells (GLI1 amp), GLI-BS reporter; assay: GLI-BS reporter assay in RMS13 cells (GLI1 amplification); format: cell-based
# Procedure: as §2
# [6] = in vitro deacetylation assay, duplicates
compound,measurement,setting,value
O=C(CCCCCCC(=O)Nc1ccc(Cl)c(C(=O)Nc2ccc(NC(=O)c3cc(Cl)ccc3Cl)cc2)c1)NO [IHR-SAHA],HDAC Activity (Fluorescent counts),"[1]; HDAC2, WW01 0 Log nM",25941 Fluorescent counts and 27493 Fluorescent counts
same,HDAC Activity (Fluorescent counts),"[1]; HDAC2, WW01 0.5 Log nM",25227 Fluorescent counts and 26727 Fluorescent counts
same,HDAC Activity (Fluorescent counts),"[1]; HDAC2, WW01 1 Log nM",25275 Fluorescent counts and 25129 Fluorescent counts
same,HDAC Activity (Fluorescent counts),"[1]; HDAC2, WW01 1.5 Log nM",23536 Fluorescent counts and 23240 Fluorescent counts
same,HDAC Activity (Fluorescent counts),"[1]; HDAC2, WW01 2 Log nM",22337 Fluorescent counts and 21686 Fluorescent counts
same,HDAC Activity (Fluorescent counts),"[1]; HDAC2, WW01 2.5 Log nM",18050 Fluorescent counts and 16002 Fluorescent counts
same,HDAC Activity (Fluorescent counts),"[1]; HDAC2, WW01 3 Log nM",12392 Fluorescent counts and 11718 Fluorescent counts
same,HDAC Activity (Fluorescent counts),"[1]; HDAC2, WW01 3.5 Log nM",9603 Fluorescent counts and 9800 Fluorescent counts
same,HDAC Activity (Fluorescent counts),"[1]; HDAC2, WW01 4 Log nM",7673 Fluorescent counts and 7404 Fluorescent counts
same,HDAC Activity (Fluorescent counts),"[1]; HDAC2, WW01 -0.5 Log nM",26601 Fluorescent counts and 28049 Fluorescent counts
same,IC50,[1]; [6],746 nM
same,HDAC Activity (Fluorescent counts),"[2]; HDAC4, WW01 0 Log nM",34281 Fluorescent counts and 35156 Fluorescent counts
same,HDAC Activity (Fluorescent counts),"[2]; HDAC4, WW01 0.5 Log nM",35257 Fluorescent counts and 33365 Fluorescent counts
same,HDAC Activity (Fluorescent counts),"[2]; HDAC4, WW01 1 Log nM",34132 Fluorescent counts and 32561 Fluorescent counts
same,HDAC Activity (Fluorescent counts),"[2]; HDAC4, WW01 1.5 Log nM",32307 Fluorescent counts and 33171 Fluorescent counts
same,HDAC Activity (Fluorescent counts),"[2]; HDAC4, WW01 2 Log nM",34170 Fluorescent counts and 33741 Fluorescent counts
same,HDAC Activity (Fluorescent counts),"[2]; HDAC4, WW01 2.5 Log nM",30594 Fluorescent counts and 30410 Fluorescent counts
same,HDAC Activity (Fluorescent counts),"[2]; HDAC4, WW01 3 Log nM",29955 Fluorescent counts and 29639 Fluorescent counts
same,HDAC Activity (Fluorescent counts),"[2]; HDAC4, WW01 3.5 Log nM",26541 Fluorescent counts and 27641 Fluorescent counts
same,HDAC Activity (Fluorescent counts),"[2]; HDAC4, WW01 4 Log nM",24902 Fluorescent counts and 23203 Fluorescent counts
same,HDAC Activity (Fluorescent counts),"[2]; HDAC4, WW01 -0.5 Log nM",34466 Fluorescent counts and 34397 Fluorescent counts
same,IC50,[2]; [6],> 10000 nM
same,HDAC Activity (Fluorescent counts),"[3]; HDAC5, WW01 0 Log nM",30976 Fluorescent counts and 29141 Fluorescent counts
same,HDAC Activity (Fluorescent counts),"[3]; HDAC5, WW01 0.5 Log nM",29969 Fluorescent counts and 29451 Fluorescent counts
same,HDAC Activity (Fluorescent counts),"[3]; HDAC5, WW01 1 Log nM",31041 Fluorescent counts and 29968 Fluorescent counts
same,HDAC Activity (Fluorescent counts),"[3]; HDAC5, WW01 1.5 Log nM",29717 Fluorescent counts and 27943 Fluorescent counts
same,HDAC Activity (Fluorescent counts),"[3]; HDAC5, WW01 2 Log nM",26390 Fluorescent counts and 24587 Fluorescent counts
same,HDAC Activity (Fluorescent counts),"[3]; HDAC5, WW01 2.5 Log nM",24330 Fluorescent counts and 23282 Fluorescent counts
same,HDAC Activity (Fluorescent counts),"[3]; HDAC5, WW01 3 Log nM",21924 Fluorescent counts and 21338 Fluorescent counts
same,HDAC Activity (Fluorescent counts),"[3]; HDAC5, WW01 3.5 Log nM",23432 Fluorescent counts and 20698 Fluorescent counts
same,HDAC Activity (Fluorescent counts),"[3]; HDAC5, WW01 4 Log nM",19760 Fluorescent counts and 18237 Fluorescent counts
same,HDAC Activity (Fluorescent counts),"[3]; HDAC5, WW01 -0.5 Log nM",30061 Fluorescent counts and 30641 Fluorescent counts
same,IC50,[3]; [6],> 10000 nM
same,IC50,[4],15 nM
same,IC50,[5],1300 nM
